Measured values reported in patent publication US20150065440A1 (Progen Pharmaceuticals Limited, priority 2007, published 2015).

Legend:
HSV-2 = test: Virus inactivation assay, HSV-2; type: cell-based; settings: for Virus-inactivating activity: viral plaques with compound-treated virus relative to mock-treated controls: 15 min at 37° C.
Protocol: (§1) Approximately 10^5 plaque-forming units of HSV-1 KOS321 or HSV-2 333 stain and specific concentrations of the test compound in 200 μL of serum-free EMEM were mixed and incubated at 37° C. for 15 min. The mixtures were diluted to the non-inhibitory concentrations of the test compound, and then subjected to the infectious titer determination as described under the viral plaque number-reduction assay. In case of RSV, the assay was carried out in similar manner using DMEM supplemented with 2% heat-inactivated fetal calf serum instead of EMEM. To evaluate the effect of a low pH value or the presence of cervical secretions; the virus (HSV-2 333) and compounds were diluted in a low pH buffer (4.5) or cervical secretions were added to the compound dilutions before mixing with the virus (HSV-2 333). The cervical secretions were prepared from cervical swabs generated from 3 different individuals. The swabs were rinsed with distilled water and centrifuged at 5000×g for 10 min. The supernatant was kept at −20° C. In the case of RSV, the assay was carried out in a similar manner using DMEM supplemented with 2% heat-inactivated fetal calf serum instead of EMEM.

HSV-1 = test: Virus inactivation assay, HSV-1; type: cell-based; settings: 15 min at 37° C.
Protocol: as §1

RSV = test: Virus inactivation assay, RSV; type: cell-based; settings: 15 min at 37° C.
Protocol: as §1

rat aortic tissue = test: Ex vivo angiogenic sprout assay (rat aortic angiogenesis assay); type: cell-based, Sprague Dawley rats
Protocol: Explants from rat aortas were prepared by a modification of protocols previously described^42-54. In this model, the rat aortic endothelium exposed to a three dimensional matrix of ECM-derived proteins (Matrigel™), switches to a microvascular phenotype, generating branching networks of microvessels.
Briefly, thoracic aortas were excised from 2- to 4-month old Sprague Dawley rats and trimmed of remaining fat and connective tissue. Great care was taken at every stage to reduce physical damage of the aorta. Tissue was transferred to complete EBM-2 media (Cambrex) containing 2% FCS and all Singlequots™ (Cambrex) reagents except for heparin. Meanwhile, Matrigel™ (BD Biosciences) was allowed to cool on ice and once in a liquid form, 180 μL was pipetted into 48-well tissue culture plates (Nunc). The plates were incubated at 37° C. for 30 min to allow Matrigel™ to solidify.
Aortas were prepared by cutting 1 mm ring sections and then being bisected. Aortic segments were then carefully placed on top on the Matrigel™ in the centre of each well and once orientated as required, 60 μL of extra Matrigel™ was placed on top and the plate was returned to the incubator for a further 20 min. Each well was then supplemented with 1.0 mL media in the absence (control) or presence of test compounds usually at two concentrations within the range of 1-50 μM, depending on the particular compound/experiment. Cultures were replenished as appropriate every 48 h and scoring of microvessels was carried out at various timepoints up to 8-10 days. The extent of microvessel sprouting was determined by employing a scoring system from 0-5, where 0=no microvessels to 5=diffuse angiogenesis as previously described^45. Sprouting vessels were photographed using the 4× objective with an Olympus C-7070 camera and an adaptor for the eyepiece.
In some instances, to determine the potential toxicity of compounds in this assay, the viability of the tissue was assessed by withdrawing the compound/media from the culture on day 6 or 7 and adding complete media with VEGF (typically 10 ng/mL) for up to an additional 7 days. In the absence of toxicity, the viable tissue should sprout microvessels in response to the exogenous growth factor.
The inhibitory effect of compounds of the present invention on angiogenesis was assayed using the angiogenic sprout/microvessel formation (rat aortic) assay described above. Embedding of the rat aortic tissue in Matrigel™ in the absence of any inhibitor (control) yielded extensive angiogenic sprouting (as a score of 5 indicates diffuse angiogenesis) as illustrated by FIG. 1.

[1] = type: in vivo, Sprague-Dawley rats; settings: rat, in vivo, iv
Protocol: Adult male Sprague-Dawley (SD) rats (approx 300 g) were used for the experiment. Femoral artery cannulae was implanted and exteriorised following isoflurane anaesthesia. Jugular vein artery cannulae was implanted and exteriorized. […]. Blood samples (˜325 μL) were collected into sample tubes containing the anticoagulant sodium citrate from femoral artery catheter pre-dose and at 5, 20 minutes and 2, 5, 8, 12, 24, and 48 hours post-dose, and kept at reduced temperature (approx 4° C.) until centrifuged. Blood samples were centrifuged, plasma separated and 50 μL aliquot of the plasma transferred to a scintillation vial for counting. At the end of the experimental period animals were euthanased via a lethal overdose of pentobarbital. The level of radioactivity in the plasma was measured following mixing of samples with Packard Ultima Gold liquid scintillation counting cocktail. Counting was conducted on a Beckman liquid scintillation counter (LS6500) or Packard TriCarb liquid scintillation counter for 10 minutes per sample. Results (DPM, calculated from an in-built quench curve in the counter) were corrected for background prior to any calculations. The pharmacokinetic parameters were calculated using PK Solutions 2.0 software (Summit Research Services, Ohio, U.S.A.) and are summarised in Table 11 below.

In the case of `CCCCCCCCCCCCOC1OC(COS(=O)(=O)O)C(OS(=O)(=O)O)C(OS(=O)(=O)O)C1OC1OC(COS(=O)(=O)O)C(OS(=O)(=O)O)C(OC2OC(COS(=O)(=O)O)C(OS(=O)(=O)O)C(OC3OC(COS(=O)(=O)O)C(OS(=O)(=O)O)C(OC4OC(COS(=O)(=O)O)C(OS(=O)(=O)O)C(OS(=O)(=O)O)C4OS(=O)(=O)O)C3OS(=O)(=O)O)C2OS(=O)(=O)O)C1OS(=O)(=O)O` [Compound 4, Dodecyl 2,3,4,6-tetra-O-sodium sulfonato-α-D-mannopyranosyl-(1→3)-2,4,6-tri-O-sodium sulfonato-α-D-mannopyranosyl-(1→3)-2,4,6-tri-O-sodium sulfonato-α-D-mannopyranosyl-(1→3)-2,4,6-tri-O-sodium sulfonato-α-D-mannopyranosyl-(1→2)-3,4,6-tri-O-sodium sulfonato-α-D-mannopyranoside], the “Virus-inactivating activity: viral plaques with compound-treated virus relative to mock-treated controls” value (HSV-2; HSV-2, 1 μg/ml) is reported as 98.6%, the “Virus-inactivating activity: viral plaques with compound-treated virus relative to mock-treated controls” value (HSV-2; HSV-2, 10 μg/ml) is reported as 97.5% and the “Virus-inactivating activity: viral plaques with compound-treated virus relative to mock-treated controls” value (HSV-2; HSV-2, 100 μg/ml) is reported as 68.1%. The “Virus-inactivating activity: viral plaques with compound-treated virus relative to mock-treated controls” value (HSV-1; HSV-1, 1 μg/ml) was 83.9%, the “Virus-inactivating activity: viral plaques with compound-treated virus relative to mock-treated controls” value (HSV-1; HSV-1, 10 μg/ml) was 79.4% and the “Virus-inactivating activity: viral plaques with compound-treated virus relative to mock-treated controls” value (HSV-1; HSV-1, 100 μg/ml) was 83.8%. For the same molecule, the “Virus-inactivating activity: viral plaques with compound-treated virus relative to mock-treated controls” value (RSV; 4 μg/ml) was 85.2%, the “Virus-inactivating activity: viral plaques with compound-treated virus relative to mock-treated controls” value (RSV; 20 μg/ml) was 82.2% and the “Virus-inactivating activity: viral plaques with compound-treated virus relative to mock-treated controls” value (RSV; 100 μg/ml) was 47.3%.
For `CC(C)CCCC(C)C1CCC2C3CCC4CC(OC5OC(COS(=O)(=O)O)C(OS(=O)(=O)O)C(OS(=O)(=O)O)C5OC5OC(COS(=O)(=O)O)C(OS(=O)(=O)O)C(OC6OC(COS(=O)(=O)O)C(OS(=O)(=O)O)C(OC7OC(COS(=O)(=O)O)C(OS(=O)(=O)O)C(OS(=O)(=O)O)C7OS(=O)(=O)O)C6OS(=O)(=O)O)C5OS(=O)(=O)O)CCC4(C)C3CCC12C` [Compound 20, 3β-Cholestanyl 2,3,4,6-tetra-O-sodium sulfonato-α-D-mannopyranosyl-(1→3)-2,4,6-tri-O-sodium sulfonato-α-D-mannopyranosyl-(1→3)-2,4,6-tri-O-sodium sulfonato-α-D-mannopyranosyl-(1→2)-3,4,6-tri-O-sodium sulfonato-α-D-mannopyranoside], the “Virus-inactivating activity: viral plaques with compound-treated virus relative to mock-treated controls” value (HSV-2; HSV-2, 1 μg/ml) was 120.3%, the “Virus-inactivating activity: viral plaques with compound-treated virus relative to mock-treated controls” value (HSV-2; HSV-2, 10 μg/ml) was 0.3% and the “Virus-inactivating activity: viral plaques with compound-treated virus relative to mock-treated controls” value (HSV-2; HSV-2, 100 μg/ml) was 0%. For the same molecule, the “Virus-inactivating activity in the presence of human cervical secretions: viral plaques relative to mock-treated controls” value (HSV-2; HSV-2, cervical secretions diluted 1:2.2, 1 μg/ml) was 82.6%, the “Virus-inactivating activity in the presence of human cervical secretions: viral plaques relative to mock-treated controls” value (HSV-2; HSV-2, cervical secretions diluted 1:2.2, 10 μg/ml) was 78.5% and the “Virus-inactivating activity in the presence of human cervical secretions: viral plaques relative to mock-treated controls” value (HSV-2; HSV-2, cervical secretions diluted 1:2.2, 100 μg/ml) was 0.3%. The “Virus-inactivating activity at low pH: viral plaques relative to mock-treated controls” value (HSV-2; HSV-2, pH 4.5, 1 μg/ml) was 93.7%, the “Virus-inactivating activity at low pH: viral plaques relative to mock-treated controls” value (HSV-2; HSV-2, pH 4.5, 10 μg/ml) was 6.8% and the “Virus-inactivating activity at low pH: viral plaques relative to mock-treated controls” value (HSV-2; HSV-2, pH 4.5, 100 μg/ml) was 0.0%. The “Virus-inactivating activity: viral plaques with compound-treated virus relative to mock-treated controls” value (HSV-1; HSV-1, 1 μg/ml) was 88.6%, the “Virus-inactivating activity: viral plaques with compound-treated virus relative to mock-treated controls” value (HSV-1; HSV-1, 10 μg/ml) was 0% and the “Virus-inactivating activity: viral plaques with compound-treated virus relative to mock-treated controls” value (HSV-1; HSV-1, 100 μg/ml) was 0%. For the same molecule, the “Virus-inactivating activity: viral plaques with compound-treated virus relative to mock-treated controls” value (RSV; 4 μg/ml) was 102.2%, the “Virus-inactivating activity: viral plaques with compound-treated virus relative to mock-treated controls” value (RSV; 20 μg/ml) was 79.0% and the “Virus-inactivating activity: viral plaques with compound-treated virus relative to mock-treated controls” value (RSV; 100 μg/ml) was 13.3%.
With `CC(C)CCC[C@@H](C)[C@H]1CC[C@H]2[C@@H]3CCC4CC(OCc5cn([C@@H]6O[C@H](COS(=O)(=O)[O-])[C@@H](O[C@H]7O[C@H](COS(=O)(=O)[O-])[C@@H](O[C@H]8O[C@H](COS(=O)(=O)[O-])[C@@H](OS(=O)(=O)[O-])[C@H](OS(=O)(=O)[O-])[C@H]8OS(=O)(=O)[O-])[C@H](OS(=O)(=O)[O-])[C@H]7OS(=O)(=O)[O-])[C@H](OS(=O)(=O)[O-])[C@H]6OS(=O)(=O)[O-])nn5)CC[C@]4(C)[C@H]3CC[C@]12C.[Na+].[Na+].[Na+].[Na+].[Na+].[Na+].[Na+].[Na+].[Na+].[Na+]` (stereo partly drawn) [Compound 70, 4-(Cholestan-3-yl-oxymethyl)[1,2,3]triazol-1-yl 2,3,4,6-tetra-O-sodium sulfonato-α-D-glucopyranosyl-(1→4)-2,3,6-tri-O-sodium sulfonato-α-D-glucopyranosyl-(1→4)-1-deoxy-2,3,6-tri-O-sodium sulfonato-β-D-glucopyranoside] the “% Inhibition of Angiogenesis (10 μM)” value (rat aortic tissue; 10 μM) was 97% and the “Half-life (iv)” value [1] was 10.3 h.
In the case of `CCCCCCCCCCCCCCCCCC(=O)NCCCO[C@@H]1O[C@H](COS(=O)(=O)[O-])[C@@H](O[C@H]2O[C@H](COS(=O)(=O)[O-])[C@@H](O[C@H]3O[C@H](COS(=O)(=O)[O-])[C@@H](O[C@H]4O[C@H](COS(=O)(=O)[O-])[C@@H](OS(=O)(=O)[O-])[C@H](OS(=O)(=O)[O-])[C@H]4OS(=O)(=O)[O-])[C@H](OS(=O)(=O)[O-])[C@H]3OS(=O)(=O)[O-])[C@H](OS(=O)(=O)[O-])[C@H]2OS(=O)(=O)[O-])[C@H](OS(=O)(=O)[O-])[C@H]1OS(=O)(=O)[O-].[Na+].[Na+].[Na+].[Na+].[Na+].[Na+].[Na+].[Na+].[Na+].[Na+].[Na+].[Na+].[Na+]` [Compound 128, 3-Stearamidopropyl 2,3,4,6-tetra-O-sulfo-α-D-glucopyranosyl-(1→4)-2,3,6-tri-O-sulfo-α-D-glucopyranosyl-(1→4)-2,3,6-tri-O-sulfo-α-D-glucopyranosyl-(1→4)-2,3,6-tri-O-sulfo-β-D-glucopyranoside, tridecasodium salt], the inhibition at 10 µM (rat aortic tissue; Rattus norvegicus) is reported as 65%.
